In US8906946B2, “TRPM8 receptor antagonists” (Dompe' S.p.A., priority 2011, dated 2014):

How the values were obtained:
hepatocytes [1] = assay: Metabolic stability hepatocytes, human; format: in vitro ADME
human TRPM8 = human TRPM8 (Homo sapiens, UniProt Q7Z2W7); assay: Selectivity analysis, calcium influx assay (Fluo-8, FLIPR TETRA), hTRPM8 in CHO cells; format: cell-based; design: expressed in transfected cells; host or cells: CHO
Procedure: The following 3 cloned human channels were evaluated in this study. • 1. Cloned hTRPM8 channels (encoded by the human TRPM8 gene, stably expressed in CHO cells), • 2. Cloned hTRPV1 channels (encoded by the human TRPV1 gene, stably expressed in HEK293 cells), • 3. Cloned hTRPV4 channels (encoded by the human TRPV4 gene, stably expressed in CHO cells). […] The ability of compound (1) to act as an antagonist of TRPM8 was evaluated with a calcium influx assay. […] Values were considered significant and highlighted in yellow if the test article mean was three or more standard deviations away from the positive control agonist mean.

hTRPV4 channels = molecular target: T1, hTRPV4 channels (Homo sapiens, UniProt Q9HBA0); assay: Selectivity analysis, calcium influx assay, hTRPV4 in CHO cells; format: cell-based
T1 construct: expressed in transfected cells; host or cells: CHO
Procedure: (§1) The objective of this study was to evaluate the effects in vitro of compound 1 on 3 cloned human channels expressed in HEK293 or CHO cells using the Fluo-8 calcium kit (AAT Bioquest, Inc.), and a Fluorescence Imaging Plate Reader (FLIPR^TETRA™) instrument. The following 3 cloned human channels were evaluated in this study. • 1. Cloned hTRPM8 channels (encoded by the human TRPM8 gene, stably expressed in CHO cells), • 2. Cloned hTRPV1 channels (encoded by the human TRPV1 gene, stably expressed in HEK293 cells), • 3. Cloned hTRPV4 channels (encoded by the human TRPV4 gene, stably expressed in CHO cells).
(§2) The effects of […] (0.001, 0.01, 1, and 10 μM) of compound (1) were evaluated on these three TRP channels (n>3) using the following experimental procedure for each channel tested:
The ability of compound (1) to act as an antagonist of TRPV4 was evaluated with a calcium influx assay. The signal elicited in the presence of the positive control agonist (10 μM GSK1016790A) was set to 100% and the signal in the presence of the antagonist (5 μM ruthenium red) was set to 0. Values were considered significant if the test article mean was three or more standard deviations away from the positive control agonist mean.

hTRPV1 channels = molecular target: T2, hTRPV1 channels (Homo sapiens, UniProt Q8NER1); assay: Selectivity analysis, calcium influx assay, hTRPV1 in HEK293 cells; format: cell-based
T2 construct: expressed in transfected cells; host or cells: HEK293
Procedure: as §1, §2
The ability of compound (1) to act as an antagonist of TRPV1 was evaluated with a calcium influx assay. The signal elicited in the presence of the positive control agonist (0.1 μM capsaicin) was set to 100% and the signal in the presence of the antagonist (5 μM ruthenium red) was set to 0.

[2] = test system: rhythmic bladder contractions; assay: Isovolumetric bladder model, intravesical protocol; format: in vivo, rat
Procedure: (§3) Female rats were anesthetized with urethane. Ureters were ligated and sectioned. A catheter was inserted through the urinary meatus into the bladder before urethral ligature. Two protocols for testing compounds were used: intravenous (i.v.) or intravesical (i.ves.) administration.
In the second protocol, the bladder was filled first 3 times every 5 min with 100 μL of a solution of solutol/NMP […] containing 0.756 mg of compound (1) or with 100 μL of vehicle, then with 100 μL of saline every 5 min until the occurrence of RBC. A maximal volume of 3 mL was infused. The threshold volume inducing RBC in each group was compared. […] Furthermore, the threshold volume (TV) in the group treated with compound (1) reached 3 mL without RBC occurrence whereas, in the vehicle group, RBC occurred in all rats with a mean volume of 0.7±0.09 ml.

hERG = hERG (Homo sapiens, UniProt Q12809); assay: hERG binding
Plasma stability, human = format: in vitro ADME
hepatocytes [3] = assay: Metabolic stability hepatocytes, rat; format: in vitro ADME
CYP1A2 = molecular target: T3, CYP1A2 (Homo sapiens, UniProt P05177); assay: CYP inhibition 1A2; format: in vitro ADME; conditions: 1A2, 10 μM
T3 sequence (P05177 1-516): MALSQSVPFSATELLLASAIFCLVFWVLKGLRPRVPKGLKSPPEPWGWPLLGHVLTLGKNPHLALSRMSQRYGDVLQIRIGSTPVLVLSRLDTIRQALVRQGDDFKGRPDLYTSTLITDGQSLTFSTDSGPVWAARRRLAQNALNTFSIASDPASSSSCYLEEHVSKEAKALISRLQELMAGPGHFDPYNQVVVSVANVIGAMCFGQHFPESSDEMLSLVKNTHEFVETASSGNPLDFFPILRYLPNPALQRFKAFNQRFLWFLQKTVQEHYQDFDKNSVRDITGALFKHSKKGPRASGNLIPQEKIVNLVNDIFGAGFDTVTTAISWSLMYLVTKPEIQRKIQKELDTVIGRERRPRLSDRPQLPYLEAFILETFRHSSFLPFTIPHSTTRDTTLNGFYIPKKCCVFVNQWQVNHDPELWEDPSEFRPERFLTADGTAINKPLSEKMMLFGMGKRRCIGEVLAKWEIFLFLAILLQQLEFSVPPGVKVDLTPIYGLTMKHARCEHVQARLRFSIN

[4] = test system: rhythmic bladder contractions; assay: Isovolumetric bladder model, intravenous protocol; format: in vivo, rat; conditions: 10 mg/kg i.v., anesthetized female rats
Procedure: as §3
In the first protocol, the bladder was filled by step of 100 μL of saline every 5 min until the occurrence of rhythmic bladder contractions (RBC). After a 30 min control period, compound (1) dissolved in solutol/NMP solution (2:1 w/w) at a dosage of 10 mg/kg, or vehicle were administered i.v (1 ml in 5 min) […] and the resulting effect was followed for 60 min. For each group, Micturition Frequency (MF) and Amplitude of Micturition (AM) were measured during the control and treatment periods.

[5] = CHO, read-out: normalized % inhibition TRPM8

Sequence of human TRPM8 (Q7Z2W7 whole entry): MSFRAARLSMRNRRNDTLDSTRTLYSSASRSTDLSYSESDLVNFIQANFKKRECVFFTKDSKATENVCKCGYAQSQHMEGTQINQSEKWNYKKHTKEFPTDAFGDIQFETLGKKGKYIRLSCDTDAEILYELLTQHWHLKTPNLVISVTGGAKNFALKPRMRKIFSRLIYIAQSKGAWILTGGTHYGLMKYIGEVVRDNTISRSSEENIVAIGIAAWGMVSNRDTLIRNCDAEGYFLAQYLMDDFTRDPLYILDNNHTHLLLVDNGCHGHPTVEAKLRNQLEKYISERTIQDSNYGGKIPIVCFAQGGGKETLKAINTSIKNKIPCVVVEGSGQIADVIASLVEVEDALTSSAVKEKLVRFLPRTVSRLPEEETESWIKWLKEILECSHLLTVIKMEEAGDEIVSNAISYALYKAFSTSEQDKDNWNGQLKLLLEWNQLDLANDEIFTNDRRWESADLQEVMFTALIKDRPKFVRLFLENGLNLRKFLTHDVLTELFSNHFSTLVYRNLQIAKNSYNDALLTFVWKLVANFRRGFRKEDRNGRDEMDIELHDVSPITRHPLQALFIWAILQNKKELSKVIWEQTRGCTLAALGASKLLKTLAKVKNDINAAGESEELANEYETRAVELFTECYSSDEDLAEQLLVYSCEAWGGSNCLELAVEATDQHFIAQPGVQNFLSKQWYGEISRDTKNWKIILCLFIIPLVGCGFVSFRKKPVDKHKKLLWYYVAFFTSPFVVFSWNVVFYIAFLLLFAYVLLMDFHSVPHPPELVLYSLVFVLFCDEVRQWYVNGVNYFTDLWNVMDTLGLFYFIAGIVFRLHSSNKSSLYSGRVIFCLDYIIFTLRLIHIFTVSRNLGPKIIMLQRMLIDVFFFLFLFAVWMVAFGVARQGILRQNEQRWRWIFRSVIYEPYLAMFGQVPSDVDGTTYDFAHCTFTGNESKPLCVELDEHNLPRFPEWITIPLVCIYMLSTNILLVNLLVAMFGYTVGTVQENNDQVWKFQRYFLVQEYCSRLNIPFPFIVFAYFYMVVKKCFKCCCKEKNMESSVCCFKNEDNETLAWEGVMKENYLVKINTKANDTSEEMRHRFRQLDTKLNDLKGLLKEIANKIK
T2 sequence (Q8NER1 whole entry): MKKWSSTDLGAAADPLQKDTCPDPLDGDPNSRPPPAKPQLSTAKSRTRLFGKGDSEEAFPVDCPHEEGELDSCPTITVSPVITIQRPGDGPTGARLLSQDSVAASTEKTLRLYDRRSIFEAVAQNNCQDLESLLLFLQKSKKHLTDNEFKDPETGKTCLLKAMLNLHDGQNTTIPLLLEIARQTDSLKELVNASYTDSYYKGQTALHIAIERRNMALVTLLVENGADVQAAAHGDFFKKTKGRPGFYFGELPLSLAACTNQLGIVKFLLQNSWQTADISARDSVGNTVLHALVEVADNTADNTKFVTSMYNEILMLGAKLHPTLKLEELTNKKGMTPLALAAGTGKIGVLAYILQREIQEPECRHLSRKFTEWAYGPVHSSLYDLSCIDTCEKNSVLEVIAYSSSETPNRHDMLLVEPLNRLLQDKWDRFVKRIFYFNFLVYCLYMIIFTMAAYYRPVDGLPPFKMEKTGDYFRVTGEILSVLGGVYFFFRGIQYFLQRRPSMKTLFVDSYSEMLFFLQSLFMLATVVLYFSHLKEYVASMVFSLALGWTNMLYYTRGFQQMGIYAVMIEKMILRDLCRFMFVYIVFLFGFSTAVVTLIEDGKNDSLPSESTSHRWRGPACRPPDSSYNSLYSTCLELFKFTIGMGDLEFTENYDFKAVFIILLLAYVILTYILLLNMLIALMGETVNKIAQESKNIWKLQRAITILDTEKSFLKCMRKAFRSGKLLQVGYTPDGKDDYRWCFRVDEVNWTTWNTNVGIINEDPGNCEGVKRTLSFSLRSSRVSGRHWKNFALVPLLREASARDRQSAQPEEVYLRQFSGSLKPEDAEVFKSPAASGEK
T1 sequence (Q9HBA0 whole entry): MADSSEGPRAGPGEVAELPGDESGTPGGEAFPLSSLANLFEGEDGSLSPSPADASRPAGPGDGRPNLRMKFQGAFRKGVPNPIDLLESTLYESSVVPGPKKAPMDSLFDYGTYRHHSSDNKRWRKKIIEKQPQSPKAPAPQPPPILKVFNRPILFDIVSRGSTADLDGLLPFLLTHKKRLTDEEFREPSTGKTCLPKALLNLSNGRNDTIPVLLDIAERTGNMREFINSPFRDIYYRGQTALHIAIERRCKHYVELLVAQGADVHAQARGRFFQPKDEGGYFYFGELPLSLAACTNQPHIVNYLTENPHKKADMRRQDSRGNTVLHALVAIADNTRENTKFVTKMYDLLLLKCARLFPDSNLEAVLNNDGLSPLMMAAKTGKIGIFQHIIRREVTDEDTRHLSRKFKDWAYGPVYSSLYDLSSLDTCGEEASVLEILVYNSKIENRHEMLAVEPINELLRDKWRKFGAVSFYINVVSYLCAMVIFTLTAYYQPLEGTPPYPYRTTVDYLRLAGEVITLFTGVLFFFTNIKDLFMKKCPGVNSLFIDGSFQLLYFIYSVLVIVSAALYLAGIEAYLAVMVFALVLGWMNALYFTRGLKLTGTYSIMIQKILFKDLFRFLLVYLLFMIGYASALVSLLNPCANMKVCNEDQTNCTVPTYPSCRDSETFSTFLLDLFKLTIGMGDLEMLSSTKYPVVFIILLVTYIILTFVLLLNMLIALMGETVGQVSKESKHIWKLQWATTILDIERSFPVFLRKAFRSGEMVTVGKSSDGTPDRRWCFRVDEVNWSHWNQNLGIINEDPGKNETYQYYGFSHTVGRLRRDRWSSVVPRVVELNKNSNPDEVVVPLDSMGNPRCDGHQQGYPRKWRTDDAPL
Sequence of hERG (Q12809 whole entry): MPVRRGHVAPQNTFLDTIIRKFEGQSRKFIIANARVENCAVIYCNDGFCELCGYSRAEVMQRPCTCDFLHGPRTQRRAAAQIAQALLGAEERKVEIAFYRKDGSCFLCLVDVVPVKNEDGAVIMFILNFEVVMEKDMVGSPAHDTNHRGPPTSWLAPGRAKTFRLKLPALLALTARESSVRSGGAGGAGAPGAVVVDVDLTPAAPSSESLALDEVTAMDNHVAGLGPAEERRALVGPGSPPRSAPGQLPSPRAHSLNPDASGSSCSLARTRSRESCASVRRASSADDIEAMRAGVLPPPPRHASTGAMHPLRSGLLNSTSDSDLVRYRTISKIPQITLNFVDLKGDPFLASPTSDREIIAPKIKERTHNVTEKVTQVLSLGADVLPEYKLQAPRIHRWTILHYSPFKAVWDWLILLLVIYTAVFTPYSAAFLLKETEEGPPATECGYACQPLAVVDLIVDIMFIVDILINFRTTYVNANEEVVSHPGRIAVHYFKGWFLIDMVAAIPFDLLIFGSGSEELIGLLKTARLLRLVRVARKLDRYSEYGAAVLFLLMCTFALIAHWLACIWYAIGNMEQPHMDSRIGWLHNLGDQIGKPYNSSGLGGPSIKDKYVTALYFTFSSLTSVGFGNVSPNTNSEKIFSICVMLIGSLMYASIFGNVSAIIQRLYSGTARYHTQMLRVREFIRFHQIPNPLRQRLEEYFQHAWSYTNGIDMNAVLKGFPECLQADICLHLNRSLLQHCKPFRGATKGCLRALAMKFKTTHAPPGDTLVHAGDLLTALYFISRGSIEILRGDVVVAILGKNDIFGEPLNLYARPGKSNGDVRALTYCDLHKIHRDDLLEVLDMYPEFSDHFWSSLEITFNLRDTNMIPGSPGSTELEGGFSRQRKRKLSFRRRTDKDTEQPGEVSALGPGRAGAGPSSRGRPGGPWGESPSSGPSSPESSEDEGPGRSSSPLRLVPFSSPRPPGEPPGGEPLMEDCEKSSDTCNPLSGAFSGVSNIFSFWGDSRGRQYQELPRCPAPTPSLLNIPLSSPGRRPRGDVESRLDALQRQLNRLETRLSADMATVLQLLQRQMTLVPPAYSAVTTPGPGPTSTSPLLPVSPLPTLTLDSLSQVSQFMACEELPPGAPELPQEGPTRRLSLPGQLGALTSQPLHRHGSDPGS

In the case of `Cl.Clc1c(OCCNCc2ccco2)ccc2ccccc12` [Compound 1, 2-[(1-chloronaphthalen-2-yl)oxy]-N-(furan-2-ylmethyl)ethanaminium chloride], the “Metabolic stability hepatocytes (% remaining at 120 min @1 μM)” value (hepatocytes [1]) is reported as 2.6%, the inhibition at 0.001 µM (human TRPM8; [5]) is reported as -25.2% and the inhibition at 0.01 µM (human TRPM8; [5]) is reported as 21.4%. The inhibition at 0.1 µM (human TRPM8; [5]) was 95.6%, the inhibition at 1 µM (human TRPM8; [5]) was 95.6% and the inhibition at 10 µM (human TRPM8; [5]) was 96.4%. For the same compound, the IC50 (human TRPM8; read-out: IC50 (TRPM8)) was 70 nM, the inhibition at 0.001 µM (hTRPV4 channels; 0.001 μM, 10 μM GSK1016790A = 100%, 5 μM ruthenium red = 0, read-out: normalized % inhibition TRPV4) was 13.3% and the inhibition at 0.01 µM (hTRPV4 channels; 0.01 μM, 10 μM GSK1016790A, read-out: normalized % inhibition TRPV4) was 9.03%. For the same compound, the inhibition at 0.1 µM (hTRPV4 channels; 0.1 μM, 10 μM GSK1016790A, read-out: normalized % inhibition TRPV4) was 12.2%, the inhibition at 1 µM (hTRPV4 channels; 1 μM, 10 μM GSK1016790A, read-out: normalized % inhibition TRPV4) was 1.97% and the inhibition at 10 µM (hTRPV4 channels; 10 μM, 10 μM GSK1016790A, read-out: normalized % inhibition TRPV4) was 85.7%. For the same compound, the inhibition at 0.001 µM (hTRPV1 channels; HEK293, 0.001 μM, 0.1 μM capsaicin = 100%, 5 μM ruthenium red = 0, read-out: normalized % inhibition TRPV1) was -9.14%, the inhibition at 0.01 µM (hTRPV1 channels; HEK293, 0.01 μM, 0.1 μM capsaicin, read-out: normalized % inhibition TRPV1) was 5.29% and the inhibition at 0.1 µM (hTRPV1 channels; HEK293, 0.1 μM, 0.1 μM capsaicin, read-out: normalized % inhibition TRPV1) was 2.12%. For the same compound, the inhibition at 1 µM (hTRPV1 channels; HEK293, 1 μM, 0.1 μM capsaicin, read-out: normalized % inhibition TRPV1) was 5.37%, the inhibition at 10 µM (hTRPV1 channels; HEK293, 10 μM, 0.1 μM capsaicin, read-out: normalized % inhibition TRPV1) was 4.9% and the “inhibition of TRPV1 ion channel (in words)” value (hTRPV1 channels; all the assay concentrations) was “do not show any relevant inhibition”. The “effect on Amplitude of Micturition (AM)” value [2] was “did not change AM”, the “effect on rhythmic bladder contractions (RBC)” value ([2]; 3 x 100 μL containing 0.756 mg) was “completely abolished RBC” and the threshold volume (TV) inducing RBC ([2]; maximal volume infused 3 mL, no RBC occurrence) was over 3 mL. For the same compound, the “hERG binding @10 μM” value (hERG) was “No effect”, the “Plasma stability (% remaining) @10 μM” value (Plasma stability, human) was 96% and the “Metabolic stability hepatocytes (% remaining at 120 min @1 μM)” value (hepatocytes [3]) was 5.0%. The inhibition at 10 µM (CYP1A2) was 98.8%, the “time of inhibition of RBC, higher compared to vehicle group” value [4] was “about 300 sec” and the “reduction of Micturition Frequency (MF)” value ([4]; first 30 min) was “about 36%”.
